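Cultured in 96-well plates, cells were exposed to test compound for 48 hours across five concentrations. Abbreviation: GI50, concentration required for 50% inhibition of growth.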 Activity calls are given as the source filed them. Rule as the data show it: active = GI50 up to about 1.1 µM and inactive = higher.
What was measured:
Assay in all cases: growth of human tumour cells (NCI), 48 h
NCI-H460 = system: NCI-H460
LOX IMVI = system: LOX IMVI
MDA-N = system: MDA-N
SN12C = system: SN12C
HCT-116 = system: HCT-116
OVCAR-4 = system: OVCAR-4
M14 = system: M14
TK-10 = system: TK-10
OVCAR-5 = system: OVCAR-5
RPMI-8226 = system: RPMI-8226
SW-620 = system: SW-620
MDA-MB-435 = system: MDA-MB-435
Malme-3M = system: Malme-3M
PC-3 = system: PC-3
NCI/ADR-RES = system: NCI/ADR-RES
SF-268 = system: SF-268
A549 = system: A549

Structure (SMILES) | GI50 (NCI-H460) | GI50 (LOX IMVI) | GI50 (MDA-N) | GI50 (SN12C) | GI50 (HCT-116) | GI50 (OVCAR-4) | GI50 (M14) | GI50 (TK-10) | GI50 (OVCAR-5) | GI50 (RPMI-8226) | GI50 (SW-620) | GI50 (MDA-MB-435) | GI50 (Malme-3M) | GI50 (PC-3) | GI50 (NCI/ADR-RES) | GI50 (SF-268) | GI50 (A549)
C=C(Cl)C(C)(Cl)CCC(Cl)C(C)C (stereo not drawn) | > 100 µM (inactive) | 15.3 µM (inactive) | 43.2 µM (inactive) | > 100 µM (inactive) | > 100 µM (inactive) | > 100 µM (inactive) | 57.7 µM (inactive) | > 100 µM (inactive) | > 100 µM (inactive) | 48.6 µM (inactive) | 99.5 µM (inactive) | > 100 µM (inactive) | > 100 µM (inactive) | > 100 µM (inactive) | > 100 µM (inactive) | > 100 µM (inactive) | > 100 µM (inactive)
CCCCOC(=O)C1CN2C=CC=NC2=NC1(C(F)(F)F)C(F)(F)F (stereo not drawn) | > 100 µM (inactive) | > 100 µM (inactive) | > 100 µM (inactive) | > 100 µM (inactive) | > 100 µM (inactive) | > 100 µM (inactive) | > 100 µM (inactive) | > 100 µM (inactive) | > 100 µM (inactive) | > 100 µM (inactive) | > 100 µM (inactive) | > 100 µM (inactive) | > 100 µM (inactive) | > 100 µM (inactive) | > 100 µM (inactive) | > 100 µM (inactive) | > 100 µM (inactive)
Oc1cc(-c2cccc3ccccc23)nc2ncccc12 | 0.0443 µM (active) | 0.033 µM (active) | 0.00119 µM (active) | 0.09 µM (active) | 0.0261 µM (active) | 0.0542 µM (active) | 0.0159 µM (active) |  | 0.0472 µM (active) | 0.0243 µM (active) | 0.0344 µM (active) | 0.000865 µM (active) | 0.00225 µM (active) | 0.0182 µM (active) | 0.0206 µM (active) | 0.0201 µM (active) | 0.0481 µM (active)
Cc1c2c(C#N)nccc2c(C)c2c1c1ccccc1n2Cc1ccccc1 | > 100 µM (inactive) | > 100 µM (inactive) | > 100 µM (inactive) | > 100 µM (inactive) | > 100 µM (inactive) | > 100 µM (inactive) | > 100 µM (inactive) | > 100 µM (inactive) | > 100 µM (inactive) | > 100 µM (inactive) | > 100 µM (inactive) | > 100 µM (inactive) | > 100 µM (inactive) | > 100 µM (inactive) | > 100 µM (inactive) | > 100 µM (inactive) | > 100 µM (inactive)
CN(c1ccccc1)S(=O)(=O)c1ccccc1[N+](=O)[O-] | 77.1 µM (inactive) | > 100 µM (inactive) | > 100 µM (inactive) | > 100 µM (inactive) | 97.5 µM (inactive) | 98.4 µM (inactive) | > 100 µM (inactive) | > 100 µM (inactive) | > 100 µM (inactive) | 37.8 µM (inactive) | > 100 µM (inactive) | 71.9 µM (inactive) | > 100 µM (inactive) | 57.9 µM (inactive) | > 100 µM (inactive) | > 100 µM (inactive) | > 100 µM (inactive)
O=S(=O)(O)c1c(/N=N/c2c(O)ccc3ccccc23)ccc2ccccc12 |  | > 100 µM (inactive) | > 100 µM (inactive) | > 100 µM (inactive) | > 100 µM (inactive) | > 100 µM (inactive) | > 100 µM (inactive) | > 100 µM (inactive) | > 100 µM (inactive) | > 100 µM (inactive) | > 100 µM (inactive) | > 100 µM (inactive) | 55.1 µM (inactive) | > 100 µM (inactive) | > 100 µM (inactive) | 51.4 µM (inactive) | > 100 µM (inactive)
CCOC(=O)C(NC(=O)c1ccccc1)(Nc1ccc(S(=O)(=O)Nc2cc(C)on2)cc1)C(F)(F)F (stereo not drawn) | > 100 µM (inactive) | > 100 µM (inactive) | > 100 µM (inactive) | > 100 µM (inactive) | > 100 µM (inactive) | > 10 µM (inactive) | > 100 µM (inactive) | 56.1 µM (inactive) | > 100 µM (inactive) | > 100 µM (inactive) | > 100 µM (inactive) | > 100 µM (inactive) | > 100 µM (inactive) | > 100 µM (inactive) | > 100 µM (inactive) | > 100 µM (inactive) | > 100 µM (inactive)
CC(C)C(NC(=O)C(Cc1ccccc1)NC(=O)[C@H]1CCC[C@H]1NC(=O)C(Cc1ccc(OC(C)(C)C)cc1)NC(=O)OC(C)(C)C)C(N)=O (stereo partly drawn) | 19.2 µM (inactive) | 15.6 µM (inactive) | 18.3 µM (inactive) | 18.2 µM (inactive) | 17.3 µM (inactive) | 19.4 µM (inactive) | 18 µM (inactive) | 28.5 µM (inactive) | 18.8 µM (inactive) | 36.5 µM (inactive) | 20.9 µM (inactive) | 17 µM (inactive) | > 10 µM (inactive) | 17.8 µM (inactive) | > 100 µM (inactive) | 23.1 µM (inactive) | 20.1 µM (inactive)
O=C1C2CCCCC2C(=O)N1n1c(-c2ccccc2)n[nH]c1=O (stereo not drawn) | > 100 µM (inactive) | > 100 µM (inactive) | > 100 µM (inactive) | > 100 µM (inactive) | > 100 µM (inactive) | > 100 µM (inactive) | > 100 µM (inactive) | > 100 µM (inactive) | > 100 µM (inactive) | > 100 µM (inactive) | > 100 µM (inactive) | > 100 µM (inactive) | > 100 µM (inactive) | > 100 µM (inactive) | > 100 µM (inactive) | > 100 µM (inactive) | > 100 µM (inactive)
Clc1ccc(-c2nn3c(COc4ccc(OCc5nnc6sc(-c7ccc(Cl)cc7)nn56)c(Cl)c4)nnc3s2)cc1 | 52 µM (inactive) | 17.9 µM (inactive) | 22 µM (inactive) | > 100 µM (inactive) | 24.8 µM (inactive) | 25.5 µM (inactive) | 31.7 µM (inactive) | 17.5 µM (inactive) | 24.2 µM (inactive) | 24.5 µM (inactive) | 24 µM (inactive) | 33.7 µM (inactive) | 37.3 µM (inactive) | 31 µM (inactive) | 27.7 µM (inactive) | 15.6 µM (inactive) | 24.4 µM (inactive)
C/C(=N\NC(N)=O)C(CN(C)C)C(c1ccccc1)c1c(O)c2ccccc2oc1=O (stereo not drawn) | > 100 µM (inactive) | > 100 µM (inactive) | > 100 µM (inactive) | > 100 µM (inactive) | > 100 µM (inactive) | > 100 µM (inactive) | > 100 µM (inactive) | > 100 µM (inactive) | > 100 µM (inactive) | 61.5 µM (inactive) | > 100 µM (inactive) | > 100 µM (inactive) | 42.4 µM (inactive) | > 100 µM (inactive) | > 100 µM (inactive) | > 100 µM (inactive) | > 100 µM (inactive)
C[Si](C)(c1ccccc1)[C@H]1CCCC=C1CCNC1c2ccccc2CCc2ccccc21 | 61.7 µM (inactive) | 70.6 µM (inactive) | 70.5 µM (inactive) | > 100 µM (inactive) | 48.3 µM (inactive) | 41.5 µM (inactive) | 56.5 µM (inactive) | > 100 µM (inactive) | > 100 µM (inactive) | 46.8 µM (inactive) | > 100 µM (inactive) | 76.2 µM (inactive) | 80 µM (inactive) | > 100 µM (inactive) | 76.2 µM (inactive) | > 100 µM (inactive) | 61.8 µM (inactive)
Nc1onc2c1Cc1c(noc1N)-c1ccccc1-2 | > 100 µM (inactive) | 32.6 µM (inactive) | 48.9 µM (inactive) | 85.3 µM (inactive) | 48.9 µM (inactive) | > 100 µM (inactive) | 84.3 µM (inactive) | > 100 µM (inactive) | > 100 µM (inactive) | 53.7 µM (inactive) | 57 µM (inactive) | 25.2 µM (inactive) | 41.9 µM (inactive) | 48.3 µM (inactive) | > 100 µM (inactive) | 54 µM (inactive) | 71 µM (inactive)
Cc1nc(O)nc2nc3ccc(Cl)cc3c(NC(C)(CO)CO)c12 | > 71.1 µM (inactive) | 55.6 µM (inactive) | 99.1 µM (inactive) | > 100 µM (inactive) | 26.7 µM (inactive) | > 57 µM (inactive) | > 100 µM (inactive) | 41.4 µM (inactive) | > 100 µM (inactive) | 30.8 µM (inactive) | > 100 µM (inactive) | > 100 µM (inactive) | > 100 µM (inactive) | 57.9 µM (inactive) | > 100 µM (inactive) | 40.6 µM (inactive) | > 34.4 µM (inactive)
CCOC(=O)CCc1cn2cc(Br)nc(OC)c2n1 | > 100 µM (inactive) | 90.2 µM (inactive) | 3.1 µM (inactive) | 75.9 µM (inactive) | 14.8 µM (inactive) | > 100 µM (inactive) | > 100 µM (inactive) | > 100 µM (inactive) |  | 44 µM (inactive) | 16.2 µM (inactive) | 2.82 µM (inactive) | > 100 µM (inactive) | 50.9 µM (inactive) | 24.9 µM (inactive) | > 100 µM (inactive) | 62.4 µM (inactive)
O=C1Nc2ccccc2/C1=N/NC(=O)C(O)(c1ccccc1)c1ccccc1 | 17.2 µM (inactive) | 16.7 µM (inactive) | 16.9 µM (inactive) |  | 22.9 µM (inactive) | 24.2 µM (inactive) | 16.7 µM (inactive) | 28.8 µM (inactive) | 17.2 µM (inactive) | 19.6 µM (inactive) | 17.1 µM (inactive) | 17 µM (inactive) | 20.7 µM (inactive) | 16.6 µM (inactive) | 23.9 µM (inactive) | 27.1 µM (inactive) | 17.1 µM (inactive)
